{
  "source": "patent US20140294729A1",
  "about": "“METHODS FOR IDENTIFICATION AND USE OF AGENTS TARGETING CANCER STEM CELLS” (Whitehead Institute for Biomedical Research, priority 2008, published 2014)",
  "system": "HMLEshEcad cells",
  "experiment": "Resistance to cytotoxic agents, immortalized HMLEshCntrl vs HMLEshEcad (MTS viability)",
  "type": "cell-based, human",
  "conditions": "three concentrations, FIG. 2B",
  "method": "FIGS. 2A-2D depict that passage through the EMT leads to resistance to conventional chemotherapy drugs. FIG. 2A depicts dose response curves of transformed HMLERshCntrl (light gray line) and HMLERshEcad (dark gray line) cells treated with Paclitaxel and Doxorubicin. Dotted line denotes the 50% fraction surviving. […] FIG. 2B depicts the response of immortalized cells to chemotherapy drugs. HMLEshCntrl and HMLEshEcad cells were treated with the indicated drugs at three concentrations for 3 days and assayed for viability using the MTS assay. While Doxorubucin, Actinomycin D, Paclitaxel and Campthotecin are chemotherapeutic drugs, Staurosporine is a general kinase inhibitor that potently induce apoptosis. FIGS. 2C and 2D depict paclitaxel treatment leads to selective expansion of a minority cell population that has undergone an EMT. Control HMLE cells and GFP expressing HMLEshEcad cells were mixed at a ratio of 20:1 and seeded onto 6-well plates in triplicate. DMSO or Paclitaxel at 2.5 nm or 10 nm concentration was added onto the mixed cell populations 1 day after seeding followed by a 3 day incubation. The number of GFP-positive cells at the end of treatment were analyzed by flow cytometry. […] Note the increase in GFP positivity from 5% to 14% upon […] Paclitaxel treatment.\nHowever, we postulated that the differential drug sensitivity observed was, rather, a consequence of the respective differentiation states of the immortalized cells from which the cancer cell lines were derived. To directly examine this hypothesis, we treated HMLEsiGFP and HMLEsiEcad cells for a period of […] with a series of chemical compounds at 3 different concentrations each. Included in these compounds were the established chemotherapy drugs Doxorubicin, Paclitaxel, Actinomycin D, Camptothecin as well as a broad kinase inhibitor, Staurosporine.\nDoxorubicin, paclitaxel, actinomycin D, campthotecin and staurosporine were purchased from Sigma and dissolved in dimethyl sulfoxide (dmso). 5000 cells in 100 ul of medium were plated per well in 96-well plates. 24 hrs after seeding, compounds at the indicated concentration were added to wells (5 wells per each concentration). Dmso treatment was used as negative control. Cell viability was measured after 72 hrs using the CellTiter96 AQueous Assay (Promega) according to manufacturer's instructions. Dose response curves were generated with GraphPad Prism software (GraphPad Software, Inc.).",
  "data": [
    {"molecule": "CC(=O)O[C@H]1C(=O)[C@@]2(C)[C@H]([C@H](OC(=O)c3ccccc3)[C@]3(O)C[C@H](OC(=O)[C@H](O)[C@@H](NC(=O)c4ccccc4)c4ccccc4)C(C)=C1C3(C)C)[C@]1(OC(C)=O)CO[C@@H]1C[C@@H]2O", "note": "[paclitaxel]", "values": [
      {"measurement": "resistance of HMLEshEcad cells relative to HMLEshCntrl control cells", "result": "increased resistance"}
    ]}
  ]
}
